Data as given in the CheMixHub viscosity set.

Assay: xn = mol fraction of the nth substance listed

CCCCCOC(C)=O + CCCCO
viscosity [mPa·s], 101.33 kPa
Settings	x1 = 0.1138	x1 = 0.2047	x1 = 0.3089	x1 = 0.4008	x1 = 0.5	x1 = 0.6103	x1 = 0.7064	x1 = 0.8088	x1 = 0.9025
293.15 K	2.52	2.275	2.024	1.825	1.633	1.443	1.295	1.154	1.039
303.15 K	2.02	1.838	1.649	1.499	1.353	1.206	1.092	0.982	0.891
313.15 K	1.515	1.395	1.269	1.167	1.066	0.964	0.883	0.805	0.739
323.15 K	1.009	0.948	0.883	0.83	0.776	0.72	0.674	0.629	0.59

C=CC(=O)OC + CCCCCCCCCCCC
viscosity [mPa·s], 100 kPa
Settings	x1 = 0.0959	x1 = 0.1996	x1 = 0.3063	x1 = 0.4005	x1 = 0.5043	x1 = 0.603	x1 = 0.7008	x1 = 0.8015	x1 = 0.8993
303.15 K	1.129	1.019	0.916	0.831	0.745	0.67	0.601	0.54	0.486
308.15 K	1.017	0.918	0.825	0.751	0.674	0.611	0.554	0.502	0.458
313.15 K	0.963	0.867	0.779	0.709	0.638	0.58	0.528	0.478	0.438

CC(C)(C)c1ccccc1 + c1ccccc1
303.15 K, 101.3 kPa
Settings	viscosity [mPa·s]
x2 = 0.0424	0.9763
x2 = 0.1376	0.9194
x2 = 0.2605	0.8507
x2 = 0.4018	0.7791
x2 = 0.5266	0.725
x2 = 0.682	0.6637
x2 = 0.7952	0.6265
x2 = 0.865	0.6036
x2 = 0.9376	0.5792
